According to ChEMBL document CHEMBL5335843, “Application of tobramycin benzyl ether as an antibiotic adjuvant capable of sensitizing multidrug-resistant Gram-negative bacteria to rifampicin” (2024):

Key:
Type in all cases: functional
Pseudomonas aeruginosa [1] = assay: Antibacterial activity against multi-drug resistant Pseudomonas aeruginosa clinical isolate 114228 assessed as inhibition of bacterial growth incubated for 18 hrs by two fold broth microdilution assay
Pseudomonas aeruginosa [2] = assay: Antibacterial activity against multi-drug resistant Pseudomonas aeruginosa clinical isolate PA259 assessed as inhibition of bacterial growth incubated for 18 hrs by two fold broth microdilution assay
Escherichia coli [3] = assay: Antibacterial activity against multi-drug resistant Escherichia coli clinical isolate 107115 assessed as inhibition of bacterial growth incubated for 18 hrs by two fold broth microdilution assay
Escherichia coli [4] = assay: Antibacterial activity against multi-drug resistant Escherichia coli clinical isolate 94474 assessed as inhibition of bacterial growth incubated for 18 hrs by two fold broth microdilution assay
Acinetobacter baumannii [5] = assay: Antibacterial activity against multi-drug resistant Acinetobacter baumannii clinical isolate 92247 assessed as inhibition of bacterial growth incubated for 18 hrs by two fold broth microdilution assay
Pseudomonas aeruginosa [6] = assay: Antibiotic adjuvant activity against multi-drug resistant Pseudomonas aeruginosa clinical isolate 101243 assessed as rifampicin MIC incubated for 18 hrs in presence of Rifampicin by two fold broth microdilution checkerboard assay
Acinetobacter baumannii [7] = assay: Antibiotic adjuvant activity against multi-drug resistant Acinetobacter baumannii clinical isolate 110193 assessed as rifampicin MIC incubated for 18 hrs in presence of Rifampicin by two fold broth microdilution checkerboard assay
Acinetobacter baumannii [8] = assay: Antibiotic adjuvant activity against multi-drug resistant Acinetobacter baumannii clinical isolate 92247 assessed as rifampicin MIC incubated for 18 hrs in presence of Rifampicin by two fold broth microdilution checkerboard assay
Acinetobacter baumannii [9] = assay: Antibiotic adjuvant activity against multi-drug resistant Acinetobacter baumannii clinical isolate LAC-4 assessed as rifampicin MIC incubated for 18 hrs in presence of Rifampicin by two fold broth microdilution checkerboard assay
Escherichia coli [10] = assay: Antibiotic adjuvant activity against multi-drug resistant Escherichia coli clinical isolate 94474 assessed as inhibition of bacterial growth incubated for 18 hrs in presence of Rifampicin by two fold broth microdilution checkerboard assay
Acinetobacter baumannii [11] = assay: Antibiotic adjuvant activity against multi-drug resistant Acinetobacter baumannii clinical isolate 110193 assessed as inhibition of bacterial growth incubated for 18 hrs in presence of Rifampicin by two fold broth microdilution checkerboard assay
Pseudomonas aeruginosa [12] = assay: Antibiotic adjuvant activity against multi-drug resistant Pseudomonas aeruginosa clinical isolate 114228 assessed as fractional inhibitory concentration index incubated for 18 hrs in presence of Rifampicin by two fold broth microdilution checkerboard assay
Acinetobacter baumannii [13] = assay: Antibiotic adjuvant activity against multi-drug resistant Acinetobacter baumannii clinical isolate 92247 assessed as fractional inhibitory concentration index incubated for 18 hrs in presence of Rifampicin by two fold broth microdilution checkerboard assay
Acinetobacter baumannii [14] = assay: Antibiotic adjuvant activity against multi-drug resistant Acinetobacter baumannii clinical isolate LAC-4 assessed as fractional inhibitory concentration index incubated for 18 hrs in presence of Rifampicin by two fold broth microdilution checkerboard assay
Pseudomonas aeruginosa [15] = assay: Antibacterial activity against multi-drug resistant Pseudomonas aeruginosa clinical isolate PA114228 assessed as inhibition of bacterial growth incubated for 18 hrs by two fold broth microdilution assay
Pseudomonas aeruginosa [16] = assay: Antibiotic adjuvant activity against multi-drug resistant Pseudomonas aeruginosa clinical isolate PA262 assessed as minocycline MIC incubated for 18 hrs in presence of minocycline by two fold broth microdilution checkerboard assay
Pseudomonas aeruginosa [17] = assay: Antibiotic adjuvant activity against multi-drug resistant Pseudomonas aeruginosa clinical isolate PA262 assessed as inhibition of bacterial growth incubated for 18 hrs in presence of minocycline by two fold broth microdilution checkerboard assay
Escherichia coli [18] = assay: Antibiotic adjuvant activity against multi-drug resistant Escherichia coli clinical isolate EC107115 assessed as inhibition of bacterial growth incubated for 18 hrs in presence of minocycline by two fold broth microdilution checkerboard assay
Pseudomonas aeruginosa [19] = assay: Antibiotic adjuvant activity against multi-drug resistant Pseudomonas aeruginosa clinical isolate PA259 assessed as fractional inhibitory concentration index incubated for 18 hrs in presence of minocycline by two fold broth microdilution checkerboard assay
Pseudomonas aeruginosa [20] = assay: Antibiotic adjuvant activity against multi-drug resistant Pseudomonas aeruginosa clinical isolate PA264 assessed as fractional inhibitory concentration index incubated for 18 hrs in presence of minocycline by two fold broth microdilution checkerboard assay
Pseudomonas aeruginosa [21] = assay: Antibiotic adjuvant activity against multi-drug resistant Pseudomonas aeruginosa clinical isolate PA262 assessed as doxycycline MIC incubated for 18 hrs in presence of doxycycline by two fold broth microdilution checkerboard assay
Escherichia coli [22] = assay: Antibiotic adjuvant activity against multi-drug resistant Escherichia coli clinical isolate EC107115 assessed as doxycycline MIC incubated for 18 hrs in presence of doxycycline by two fold broth microdilution checkerboard assay
Pseudomonas aeruginosa [23] = assay: Antibiotic adjuvant activity against multi-drug resistant Pseudomonas aeruginosa clinical isolate PA259 assessed as inhibition of bacterial growth incubated for 18 hrs in presence of doxycycline by two fold broth microdilution checkerboard assay
Pseudomonas aeruginosa [24] = assay: Antibiotic adjuvant activity against multi-drug resistant Pseudomonas aeruginosa clinical isolate PA262 assessed as inhibition of bacterial growth incubated for 18 hrs in presence of doxycycline by two fold broth microdilution checkerboard assay
Escherichia coli [25] = assay: Antibiotic adjuvant activity against multi-drug resistant Escherichia coli clinical isolate EC107115 assessed as inhibition of bacterial growth incubated for 18 hrs in presence of doxycycline by two fold broth microdilution checkerboard assay
Escherichia coli [26] = assay: Antibiotic adjuvant activity against multi-drug resistant Escherichia coli clinical isolate EC94474 assessed as inhibition of bacterial growth incubated for 18 hrs in presence of doxycycline by two fold broth microdilution checkerboard assay
Escherichia coli [27] = assay: Antibiotic adjuvant activity against multi-drug resistant Escherichia coli clinical isolate EC107115 assessed as fold potentiation incubated for 18 hrs in presence of doxycycline by two fold broth microdilution checkerboard assay
Escherichia coli [28] = assay: Antibiotic adjuvant activity against multi-drug resistant Escherichia coli clinical isolate EC94474 assessed as fold potentiation incubated for 18 hrs in presence of doxycycline by two fold broth microdilution checkerboard assay
Enterococcus faecium [29] = assay: Antibacterial activity against Enterococcus faecium 128149 assessed as inhibition of bacterial growth incubated for 18 hrs by two fold broth microdilution assay
Staphylococcus aureus [30] = assay: Antibacterial activity against methicilin-resistant Staphylococcus aureus assessed as inhibition of bacterial growth incubated for 18 hrs by two fold broth microdilution assay
Enterococcus faecium [31] = assay: Antibiotic adjuvant activity against Enterococcus faecium 114278 assessed as rifampicin MIC incubated for 18 hrs in presence of rifampicin by two fold broth microdilution checkerboard assay
Enterococcus faecium [32] = assay: Antibiotic adjuvant activity against Enterococcus faecium 128149 assessed as rifampicin MIC incubated for 18 hrs in presence of rifampicin by two fold broth microdilution checkerboard assay
Staphylococcus aureus [33] = assay: Antibiotic adjuvant activity against methicilin-resistant Staphylococcus aureus assessed as rifampicin MIC incubated for 18 hrs in presence of rifampicin by two fold broth microdilution checkerboard assay
Pseudomonas aeruginosa [34] = assay: Antibiotic adjuvant activity against Pseudomonas aeruginosa PAO1 assessed as fold potentiation incubated for 18 hrs in presence of rifampicin and CAMHB Mg2+ media by two fold broth microdilution checkerboard assay
Acinetobacter baumannii [35] = assay: Antibiotic adjuvant activity against Acinetobacter baumannii ATCC 17978 assessed as fold potentiation incubated for 18 hrs in presence of rifampicin and CAMHB Mg2+ media by two fold broth microdilution checkerboard assay
Escherichia coli [36] = assay: Antibiotic adjuvant activity against Escherichia coli ATCC 25922 assessed as fold potentiation incubated for 18 hrs in presence of rifampicin and CAMHB Na+ media by two fold broth microdilution checkerboard assay

Question: For `Cl.NC[C@H]1O[C@H](O[C@H]2[C@H](OCc3ccccc3)[C@@H](O[C@H]3O[C@H](COCc4ccccc4)[C@@H](OCc4ccccc4)[C@H](N)[C@H]3OCc3ccccc3)[C@H](N)C[C@@H]2N)[C@H](N)C[C@@H]1OCc1ccccc1`, which MIC (Pseudomonas aeruginosa [1]) is on record?
Answer: Its MIC is 64 µg/mL.

Question: What about the MIC (Pseudomonas aeruginosa [2]) of the same molecule?
Answer: Its MIC is 128 µg/mL.

Question: And the MIC (Escherichia coli [3])?
Answer: Its MIC is 32 µg/mL.

Question: What about the MIC (Escherichia coli [4]) of the same molecule?
Answer: Its MIC is 32 µg/mL.

Question: What about the MIC (Acinetobacter baumannii [5]) of the same molecule?
Answer: The MIC was 32 µg/mL.

Question: What about the MIC (Pseudomonas aeruginosa [6]) of the same molecule?
Answer: Its MIC is 0.004 µg/mL.

Question: And the MIC (Acinetobacter baumannii [7])?
Answer: The MIC was 0.004 µg/mL.

Question: What about the MIC (Acinetobacter baumannii [8]) of the same molecule?
Answer: Its MIC is 0.008 µg/mL.

Question: And the MIC (Acinetobacter baumannii [9])?
Answer: Its MIC is 0.002 µg/mL.

Question: What about the MIC (Escherichia coli [10]) of the same molecule?
Answer: Its MIC is 4 µg/mL.

Question: And the MIC (Acinetobacter baumannii [11])?
Answer: The MIC was 8 µg/mL.

Question: What about the “fractional inhibitory concentration index (FICI)” value (Pseudomonas aeruginosa [12]) of the same molecule?
Answer: The value was 1.125.

Question: And the “fractional inhibitory concentration index (FICI)” value (Acinetobacter baumannii [13])?
Answer: Its value is 0.252.

Question: And the “fractional inhibitory concentration index (FICI)” value (Acinetobacter baumannii [14])?
Answer: The value was 0.251.

Question: And the MIC (Pseudomonas aeruginosa [15])?
Answer: The MIC was 64 µg/mL.

Question: What about the MIC (Pseudomonas aeruginosa [16]) of the same molecule?
Answer: The MIC was 256 µg/mL.

Question: What about the MIC (Pseudomonas aeruginosa [17]) of the same molecule?
Answer: Its MIC is 8 µg/mL.

Question: And the MIC (Escherichia coli [18])?
Answer: Its MIC is 8 µg/mL.

Question: What about the “fractional inhibitory concentration index (FICI)” value (Pseudomonas aeruginosa [19]) of the same molecule?
Answer: The value was 1.063.

Question: And the “fractional inhibitory concentration index (FICI)” value (Pseudomonas aeruginosa [20])?
Answer: The value was 0.563.

Question: What about the MIC (Pseudomonas aeruginosa [21]) of the same molecule?
Answer: The MIC was 512 µg/mL.

Question: And the MIC (Escherichia coli [22])?
Answer: The MIC was 32 µg/mL.

Question: And the MIC (Pseudomonas aeruginosa [23])?
Answer: The MIC was 8 µg/mL.

Question: And the MIC (Pseudomonas aeruginosa [24])?
Answer: The MIC was 8 µg/mL.

Question: What about the MIC (Escherichia coli [25]) of the same molecule?
Answer: Its MIC is 8 µg/mL.

Question: And the MIC (Escherichia coli [26])?
Answer: The MIC was 8 µg/mL.

Question: What about the “fold change (FC)” value (Escherichia coli [27]) of the same molecule?
Answer: The value was 4.

Question: And the “fold change (FC)” value (Escherichia coli [28])?
Answer: The value was 8.

Question: And the MIC (Enterococcus faecium [29])?
Answer: The MIC was 16 µg/mL.

Question: And the MIC (Staphylococcus aureus [30])?
Answer: The MIC was 16 µg/mL.

Question: What about the MIC (Enterococcus faecium [31]) of the same molecule?
Answer: Its MIC is 4 µg/mL.

Question: And the MIC (Enterococcus faecium [32])?
Answer: Its MIC is 8 µg/mL.

Question: And the MIC (Staphylococcus aureus [33])?
Answer: Its MIC is 256 µg/mL.

Question: What about the fold change (FC) (Pseudomonas aeruginosa [34]) of the same molecule?
Answer: Its fold change (FC) is 1.

Question: What about the fold change (FC) (Acinetobacter baumannii [35]) of the same molecule?
Answer: Its fold change (FC) is 16.

Question: What about the fold change (FC) (Escherichia coli [36]) of the same molecule?
Answer: The fold change (FC) was 512.
